According to paper PMC12720098, “Prolintane analogs as hybrid monoamine transporter ligands: Structural determinants and species differences” (The Journal of Biological Chemistry, 2025):
Read-outs that look alike come from different tables or passages of the source.

How the values were obtained:
Assay type in all cases: cell-based
hSERT [1] = molecular target: T1, hSERT (Homo sapiens, UniProt P31645); conditions: for Mean diff, hSERT efflux ± Mon (Šídák's multiple comparisons test): drug alone vs drug + monensin (Mon); for hSERT efflux ± Mon, mean diff: superfusion
T1 construct: expressed in transfected cells
T1 sequence (P31645 whole entry, the tested form may be a part): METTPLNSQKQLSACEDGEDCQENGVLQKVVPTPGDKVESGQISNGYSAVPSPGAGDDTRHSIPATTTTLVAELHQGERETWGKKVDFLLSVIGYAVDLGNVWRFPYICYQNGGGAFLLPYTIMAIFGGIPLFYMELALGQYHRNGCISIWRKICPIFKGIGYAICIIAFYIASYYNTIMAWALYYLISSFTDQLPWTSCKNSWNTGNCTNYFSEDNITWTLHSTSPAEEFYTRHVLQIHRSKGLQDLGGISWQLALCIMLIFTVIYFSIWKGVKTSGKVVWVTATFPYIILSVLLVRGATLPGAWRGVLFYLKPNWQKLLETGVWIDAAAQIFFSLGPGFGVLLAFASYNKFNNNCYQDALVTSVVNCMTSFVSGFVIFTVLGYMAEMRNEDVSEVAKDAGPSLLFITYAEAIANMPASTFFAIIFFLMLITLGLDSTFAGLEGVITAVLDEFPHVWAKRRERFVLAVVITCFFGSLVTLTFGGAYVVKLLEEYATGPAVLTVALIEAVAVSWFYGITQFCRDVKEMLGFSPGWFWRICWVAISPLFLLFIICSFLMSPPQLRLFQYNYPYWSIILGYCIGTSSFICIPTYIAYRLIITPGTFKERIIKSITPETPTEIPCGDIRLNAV
Procedure: A day prior to the experiment, HEK293 cells stably expressing hSERT or rat SERT (rSERT) were seeded at a density of 100,000 cells per channel into 6 channel flow ibidi slides (Gräfelfing, Germany). On the day of the experiments, cells were preloaded with 0.1 μM [^3H]5-HT at 37 °C, 5% CO2 for 20 min. Subsequently, the slides were transferred to the superfusion apparatus ([59]). Cells were then washed with KHB for 15 min under a constant flow of 0.5 ml/min. Fractions were collected every 2 min in 8 ml vials containing 2 ml scintillation cocktail. Collection began with three baseline fractions using KHB, followed by four additional basal release fractions with KHB, either with or without 10 μM monensin. […] To assess residual radioactivity within the cells, they were lysed with 1% sodium dodecyl sulfate (SDS), and three final fractions were obtained. The measured tritiated substrate in each fraction was expressed as a percentage of the initial tritiated substrate present at the start of that fraction.
(§1) Half-maximal inhibitory concentrations (IC50) were obtained from fitting a sigmoidal dose–response ( Y=Bottom+Top−Bottom/1+10^((LogIC50−X)·HillSlope) ) in GraphPad Prism 10.3.1 (GraphPad Software Inc.). Uptake inhibition data were evaluated by one-way ANOVA followed by Tukey's multiple comparisons test. Release data were analyzed using a two-way ANOVA (batch release) or a mixed-effects model with Geisser-Greenhouse correction (time-dependent traces) employing Šidák correction for comparing differences between compounds with or without the addition of monensin.

hSERT [2] = molecular target: T1, hSERT; assay: Uptake inhibition assay ([3H]5-HT) in transfected HEK293 cells
Procedure: HEK293 cells stably expressing human monoamine transporters hSERT, hDAT or hNET were seeded into poly-D-lysine (PDL) coated 96-well plates with a density of approximately 36,000 cells per well 1 day prior to experiments. A day after seeding, the cell medium was replaced with 200 μl Krebs-HEPES-buffer (KHB; 120 mM NaCl, 3 mM KCl, 2 mM CaCl2·2H2O, 2 mM MgCl2·6H2O, 20 mM D-glucose, pH = 7.3). The test drugs were initially dissolved in Milli-Q H2O or dimethyl sulfoxide (DMSO) at a concentration of 10 to 100 mM. Then, cells were treated with the respective concentration of the test drug diluted in KHB for 5 min as a pre-incubation step. Subsequently, in the uptake step, the solution was replaced with 50 μl/well diluted drug solution and tritiated substrate (hDAT: 0.1 μM [^3H]DA; hNET: 0.02 μM [^3H]MPP^+; hSERT: 0.1 μM [^3H]5-HT) for 1 min (hDAT, hSERT) or 3 min (hNET). After incubation, cells were immediately washed with 200 μl KHB to stop uptake. Uptake was indirectly measured by quantifying beta emission with liquid scintillation counting (Wallac 1450 MicroBeta TriLux Liquid Scintillation Counter & Lumi; GMI). Therefore, 200 μl Ultima Gold XR scintillation cocktail (PerkinElmer, MA, USA) was added to each well.
as §1

hSERT [3] = molecular target: T1, hSERT; conditions: batch release, % efflux of total uptake, compounds approximately at IC50 concentration
Procedure: Batch release assays were performed as described previously ([44]). In brief, HEK293 cells stably expressing monoamine transporters were seeded similar to the procedure used for uptake inhibition assays. A day after seeding cells were pre-loaded with 50 μl/well 0.015 μM [^3H]MPP^+ (hDAT, hNET), or 0.08 μM [^3H]5-HT (hSERT) for 20 min at 37 °C. Then cells were washed four times for 3 to 4 min each and further incubated with KHB or KHB + monensin. After 10 min of incubation, two (screening) to four (full traces; hSERT) 2 min incubations were performed to establish a baseline release without substance. […] Each fraction was transferred to an empty well in the 96-well plate. For screening, a known inhibitor (hDAT, hNET: 50 μM GBR12909) and releaser (hDAT, hNET: 10 μM S-(+)-amphetamine) were used as controls. Ultima Gold XR scintillation cocktail was added to the remaining cells, and each well contained a release fraction. The counted radioactivity in the respective fraction was expressed as a percentage of total radioactivity at the start of the fraction.
as §1

[4] = Row 1 (2 min fraction 1, baseline KHB)
[5] = Row 2 (2 min fraction 2, baseline KHB)
[6] = Row 3 (2 min fraction 3, baseline KHB)
[7] = Row 4 (fraction 4, KHB with or without 10 μM monensin)
[8] = Row 5 (fraction 5, KHB with or without 10 μM monensin)
[9] = Row 6 (fraction 6, KHB with or without 10 μM monensin)
[10] = Row 7 (fraction 7, KHB with or without 10 μM monensin)
[11] = Row 8 (fraction 8, compound at IC50 concentration)
[12] = Row 9 (fraction 9, compound at IC50 concentration)
[13] = Row 10 (fraction 10, compound at IC50 concentration)
[14] = Row 11 (fraction 11, compound at IC50 concentration)
[15] = Row 12 (fraction 12, compound at IC50 concentration)

SMILES | Mean diff, hSERT efflux ± Mon (Šídák's multiple comparisons test) (hSERT [1]; Row 1 (time fraction)) | Mean diff, hSERT efflux ± Mon (Šídák's multiple comparisons test) (hSERT [1]; Row 2 (time fraction)) | Mean diff, hSERT efflux ± Mon (Šídák's multiple comparisons test) (hSERT [1]; Row 3 (time fraction)) | Mean diff, hSERT efflux ± Mon (Šídák's multiple comparisons test) (hSERT [1]; Row 4 (time fraction)) | Mean diff, hSERT efflux ± Mon (Šídák's multiple comparisons test) (hSERT [1]; Row 5 (time fraction)) | Mean diff, hSERT efflux ± Mon (Šídák's multiple comparisons test) (hSERT [1]; Row 6 (time fraction)) | Mean diff, hSERT efflux ± Mon (Šídák's multiple comparisons test) (hSERT [1]; Row 7 (time fraction)) | Mean diff, hSERT efflux ± Mon (Šídák's multiple comparisons test) (hSERT [1]; Row 8 (time fraction)) | Mean diff, hSERT efflux ± Mon (Šídák's multiple comparisons test) (hSERT [1]; Row 9 (time fraction)) | Mean diff, hSERT efflux ± Mon (Šídák's multiple comparisons test) (hSERT [1]; Row 10 (time fraction)) | Mean diff, hSERT efflux ± Mon (Šídák's multiple comparisons test) (hSERT [1]; Row 11 (time fraction)) | Mean diff, hSERT efflux ± Mon (Šídák's multiple comparisons test) (hSERT [1]; Row 12 (time fraction)) | IC50 (hSERT [2]) [µM] | hSERT-mediated efflux, predicted (LS) mean diff, No mon - Mon (hSERT [3]) | further results
CCCC(Cc1ccccc1F)N1CCCC1 (stereo not shown) [2-Fluoroprolintane, 1-[1-(2-fluorophenyl)pentan-2-yl]pyrrolidine] | -0.05533 | -0.01811 | -0.031 | -0.05989 | -0.128 | -0.2267 | -0.3166 | -4.727 | -7.079 | -7.103 | -6.897 | -6.561 | 35.2 ± 9.25 | -6.392 | –
CCCC(Cc1ccccc1C)N1CCCC1 (stereo not shown) [2-Methylprolintane, 1-[1-(2-methylphenyl)pentan-2-yl]pyrrolidine] | – | – | – | – | – | – | – | – | – | – | – | – | 4.25 ± 1.78 | -4.459 | hSERT efflux ± Mon, mean diff (hSERT [1]; [4]): 0.1289; hSERT efflux ± Mon, mean diff (hSERT [1]; [5]): 0.1185; hSERT efflux ± Mon, mean diff (hSERT [1]; [6]): 0.1694; hSERT efflux ± Mon, mean diff (hSERT [1]; [7]): 0.04832; hSERT efflux ± Mon, mean diff (hSERT [1]; [8]): -0.1068; hSERT efflux ± Mon, mean diff (hSERT [1]; [9]): -0.2079; hSERT efflux ± Mon, mean diff (hSERT [1]; [10]): -0.2202; hSERT efflux ± Mon, mean diff (hSERT [1]; [11]): -5.467; hSERT efflux ± Mon, mean diff (hSERT [1]; [12]): -7.92; hSERT efflux ± Mon, mean diff (hSERT [1]; [13]): -7.744; hSERT efflux ± Mon, mean diff (hSERT [1]; [14]): -7.355; hSERT efflux ± Mon, mean diff (hSERT [1]; [15]): -7.467
CCCC(Cc1cccc(F)c1)N1CCCC1 (stereo not shown) [3-Fluoroprolintane, 1-[1-(3-fluorophenyl)pentan-2-yl]pyrrolidine] | 0,003889 | -0,003000 | 0,02067 | -0,01133 | -0,1369 | -0,2296 | -0,2910 | -4,827 | -7,510 | -7,391 | -7,140 | -7,011 | 13.5 ± 1.84 | -5.404 | –
CCCC(Cc1cccc(C)c1)N1CCCC1 (stereo not shown) [3-Methylprolintane, 1-[1-(3-methylphenyl)pentan-2-yl]pyrrolidine] | 0.05456 | 0.01844 | 0.02833 | 0.07733 | -0.1496 | -0.229 | -0.329 | -4.546 | -6.038 | -6.018 | -5.904 | -5.776 | 2.95 ± 0.541 | -5.6 | –
CCCC(Cc1ccc(F)cc1)N1CCCC1 (stereo not shown) [4-Fluoroprolintane, 1-[1-(4-fluorophenyl)pentan-2-yl]pyrrolidine] | -0,0007778 | 0,02200 | 0,004889 | -0,08044 | -0,1983 | -0,2323 | -0,3017 | -8,349 | -9,598 | -8,382 | -7,454 | -6,666 | 19.6 ± 2.43 | -7.206 | –
CCCC(Cc1ccc(C)cc1)N1CCCC1 (stereo not shown) [4-Methylprolintane, 1-[1-(4-methylphenyl)pentan-2-yl]pyrrolidine] | -0,002444 | 0,005667 | -0,04278 | -0,1390 | -0,3006 | -0,3681 | -0,4242 | -4,103 | -5,748 | -5,723 | -5,744 | -5,949 | 2.56 ± 0.515 | -4.314 | inhibitory potency at hSERT compared to pyrovalerone, fold greater (hSERT [2]; pyrovalerone value ref 53): 10 fold
CCCC(Cc1ccccc1)N1CCCC1 (stereo not shown) [Prolintane, 1-(1-phenylpentan-2-yl)pyrrolidine] | – | – | – | – | – | – | – | – | – | – | – | – | 28.6 ± 4.01 | -7.218 | hSERT efflux ± Mon, mean diff (hSERT [1]; [4]): 0.02682; hSERT efflux ± Mon, mean diff (hSERT [1]; [5]): 0.1025; hSERT efflux ± Mon, mean diff (hSERT [1]; [6]): 0.1806; hSERT efflux ± Mon, mean diff (hSERT [1]; [7]): 0.1203; hSERT efflux ± Mon, mean diff (hSERT [1]; [8]): 0.07151; hSERT efflux ± Mon, mean diff (hSERT [1]; [9]): -0.1392; hSERT efflux ± Mon, mean diff (hSERT [1]; [10]): -0.1744; hSERT efflux ± Mon, mean diff (hSERT [1]; [11]): -5.479; hSERT efflux ± Mon, mean diff (hSERT [1]; [12]): -6.902; hSERT efflux ± Mon, mean diff (hSERT [1]; [13]): -6.703; hSERT efflux ± Mon, mean diff (hSERT [1]; [14]): -6.503; hSERT efflux ± Mon, mean diff (hSERT [1]; [15]): -6.083; IC50 at hSERT, fold weaker than at hDAT and hNET (hSERT [2]; HEK293 cells): more than 500 fold
